Article PMC8997913, “Lichen Secondary Metabolites Inhibit the Wnt/β-Catenin Pathway in Glioblastoma Cells and Improve the Anticancer Effects of Temozolomide” (Cells, 2022)

What was measured:
[1] = parameters: method as in PMID 34959693, PMID 33916370; conditions: previous studies, ref [5],[14]; cited from earlier work
[2] = system: Wnt/β-catenin pathway target genes in T98G cells; assay: qPCR of β-catenin and Wnt target genes, T98G; assay type: cell-based, human; conditions: 48 h, mRNA vs DMSO control, single agent
Method: (§1) Based on the MTT test, the lichen secondary metabolite concentrations allowing the survival of more than 70% of cells were chosen for the subsequent experiments. The compounds were added as follows: A-172 cells—atranorin 25 µM, caperatic acid 50 µM, physodic acid 25 µM, squamatic acid 25 µM, salazinic acid 50 µM, and lecanoric acid 100 µM; T98G cells—atranorin 50 µM, caperatic acid 100 µM, physodic acid 25 µM, squamatic acid 50 µM, salazinic acid 100 µM, and lecanoric acid 100 µM; U-138 MG cells—atranorin 25 µM, caperatic acid 50 µM, physodic acid 25 µM, squamatic acid 50 µM, salazinic acid 50 µM, and lecanoric acid 100 µM. As far as the TMZ treatment is concerned, it was added in the concentrations depending on the MGMT expression and methylation status, i.e., TMZ 30 µM was added to the A-172 cell line, and TMZ 100 µM was added to both the T98G and U-138 MG cell lines. In the case of the 2D culture, the cells were treated with the compounds 24 h after seeding, whereas, in regard to 3D culture, 5 days were needed to form spheroids. All subsequent analyses were performed 48 h after treatment.
(§2) The Universal RNA Purification Kit (EURx, Gdańsk, Poland) was used for total RNA isolation from the A-172, T98G, and U-138 MG cells, and the Revert-Aid First Strand cDNA Synthesis kit (Fermentas, Burlington, ON, Canada) was chosen for cDNA synthesis. Quantitative real-time PCR (qPCR) was performed using Hot FIREPol EvaGreen qPCR Mix Plus (Solis Biodyne, Tartu, Estonia) and LightCycler 96 (Roche Diagnostics GmbH, Mannheim, Germany). Primer sequences were previously published and their synthesis was performed at the Institute of Biochemistry and Biophysics, Warsaw, Poland. The protocol started with 15 min enzyme activation at 95 °C, followed by 40 cycles of 95 °C for 15 s; appropriate annealing temperature for 20 s; 72 °C for 40 s and the final elongation at 72 °C for 5 min. Melting curve analysis was used to confirm the generation of a single amplification product. TATA box-binding protein (TBP), a component of the DNA-binding protein complex TFIID, served as the endogenous RNA control. The results were expressed as N-fold differences in the gene expression relative to the TBP gene. The ΔΔCt method was used for fold-change calculation. All samples were analyzed in triplicate, and the reaction was repeated at least twice.

[3] = system: Wnt/β-catenin pathway target genes in A-172 cells; assay: qPCR of β-catenin and Wnt target genes, A-172; assay type: cell-based, human; conditions: A-172, 48 h
Method: as §1, §2

T98G cells [4] = assay: Apoptosis, caspase-3/7 and 7-AAD flow cytometry, T98G; assay type: cell-based, human
Method: as §1
(§3) The fluorescent-based analysis of apoptosis using Muse® Caspase-3/7 Kit was performed in order to analyze the percentage of live, early, and late apoptotic; total apoptotic; and dead cells in A-172, T98G, and U-138 MG GBM cells treated with lichen secondary metabolites. The principle of the method relies on the measurement of the activity of executioner caspases, i.e., caspase-3 and caspase-7, as well as analyzing the integrity of the cell membrane with the use of a dead cell marker 7-AAD. Cell seeding and treatment followed the same protocol as for cell cycle or ROS generation analysis, while the subsequent procedures were performed according to the manufacturer’s recommendations.

[5] = system: Wnt/β-catenin pathway target genes in U-138 MG cells; assay: qPCR of β-catenin and Wnt target genes, U-138 MG; assay type: cell-based, human; conditions: 48 h; for NEDD9 expression: TMZ 100 µM
Method: as §1, §2

T98G cells [6] = conditions: taken from the literature, ref [14]; read-out: IC50 [uM] ± SEM T98G; cited from earlier work
U-138 MG cells [7] = assay: Apoptosis, caspase-3/7 and 7-AAD flow cytometry, U-138 MG; assay type: cell-based, human; conditions: 48 h
Method: as §1, §3

[8] = Parallel artificial membrane permeability assay for the blood-brain barrier (PAMPA-BBB); assay type: in vitro ADME; conditions: pH 7.4, 4 h, 37 °C, mean ± SEM, n = 3, Pe > 1.5 high, < 1.5 low permeation predicted, read-out: Pe × 10^−6
Method: The parallel artificial membrane permeability assay (PAMPA) for the blood-brain barrier (BBB) (Pion Inc., Billerica, MA, USA) was used to analyze whether the lichen secondary metabolites tested in this study were able to cross the BBB. The stock solutions (5 mg/mL) of tested compounds were prepared using DMSO. Next, the donor solution (24.75 μg/mL) using Prisma buffer (pH = 7.4; Prisma HT, Pion Inc., Billerica, MA, USA) were made. Firstly, 180 μL of the donor solution were added to the donor wells. Then the filter membranes were coated with 5 μL BBB-1 lipid solution (Pion Inc., Billerica, MA, USA) and the acceptor wells were filled with 200 μL BSB (Brain Sink Buffer, Pion Inc., Billerica, MA, USA). The plates were sandwiched together and incubated for 4 h at 37 °C (Thermo Scientific MaxQ 4450, Waltham, MA, USA). The results were determined by spectroscopic analysis (Multiskan GO microplate reader, Waltham, MA, USA), with the appropriate wavelength for a given compound (240 nm for […] salazinic acid, 250 nm for atranorin and squamatic acid, 263 nm for physodic acid, and 270 nm for lecanoric acid). […] Pe is the effective permeability coefficient (cm/s), VD-donor volume, VA-acceptor volume, Ceq-equilibrium concentration, Ceq=CD×VD+CA×VA/VD+VA , S-membrane area, and t-incubation time (in seconds). […] Samples were analyzed in triplicate, and the average was reported.

[9] = system: A375 melanoma cancer cells; parameters: method as in PMID 28012710; conditions: ref [33]; cited from earlier work
U-138 MG cells [10] = system: U-138 MG cells; parameters: method as in PMID 33916370; conditions: taken from the literature, ref [14]; read-out: IC50 [uM] ± SEM U-138 MG; cited from earlier work
A-172 cells = conditions: taken from the literature, ref [14]; read-out: IC50 [uM] ± SEM A-172; cited from earlier work
T98G cells [11] = assay: ROS (superoxide) generation, flow cytometry, T98G; assay type: cell-based, human; conditions: 48 h
Method: (§4) Based on the MTT test, the lichen secondary metabolite concentrations allowing the survival of more than 70% of cells were chosen for the subsequent experiments. The compounds were added as follows: A-172 cells—atranorin 25 µM, caperatic acid 50 µM, physodic acid 25 µM, squamatic acid 25 µM, salazinic acid 50 µM, and lecanoric acid 100 µM; T98G cells—atranorin 50 µM, caperatic acid 100 µM, physodic acid 25 µM, squamatic acid 50 µM, salazinic acid 100 µM, and lecanoric acid 100 µM; U-138 MG cells—atranorin 25 µM, caperatic acid 50 µM, physodic acid 25 µM, squamatic acid 50 µM, salazinic acid 50 µM, and lecanoric acid 100 µM. […]
The intracellular detection of superoxide radicals was detected by flow cytometric analysis after the staining with dihydroethidium, using The Muse® Oxidative Stress Kit (Merck, Darmstadt, Germany). Briefly, 100,000 cells per well were seeded on 6-well plates and after a 24 h incubation they were treated with the analyzed lichen secondary metabolites in the concentrations allowing >70% of cell survival; cells treated with DMSO were used as the negative control. […] The obtained data were evaluated using Muse® Analysis Software ver. […]

[12] = system: T98G cells-derived spheroids; assay: Microarray expression study of T98G spheroids; assay type: cell-based, human; conditions: 48 h, TMZ 100 µM, FC > abs. 2
Method: Moreover, the 3D culture of the T98G cell line was also established. The cells were cultured in ultra-low attachment microplates (Corning®, Corning, NY, USA) (1000 cell per well) to form spheroids. The standard medium was supplemented with Corning® Matrigel® Matrix for Organoid Culture (3.5%) (Corning®, Corning, NY, USA) and epidermal growth factor—EGF (10 ng/mL) (Stemcell Technologies, Vancouver, BC, Canada). Both 2D and 3D cell cultures were grown in a standard humidified incubator (Memmert, Schwabach, Germany) at 37 °C in 5% CO2 and 95% air atmosphere.
as §4
The obtained CEL files were further analyzed using the R statistical language and Bioconductor package, including the relevant Bioconductor libraries. […]

[13] = mRNA vs DMSO control, single agent, (TMZ 30 µM)
[14] = mRNA vs DMSO control, single agent

CC(=O)C1=C(O)C=C2Oc3c(C(C)=O)c(O)c(C)c(O)c3[C@]2(C)C1=O [(−)-usnic acid]
ability to cross the blood-brain barrier [1]: can cross the blood-brain barrier

Cn1ncnc2c(=O)n(C)c(=O)nc1-2 [PKF118-310, reference compound]
c-MYC expression [2]: did not diminish
BIRC5 expression ([2]; TMZ 100 µM): downregulated
c-MYC expression [3, 13]: did not diminish

CCCCCC(=O)Cc1cc(O)cc2c1C(=O)Oc1cc(O)c(C(=O)O)c(CCCCC)c1O2 [Physodic acid]
number of apoptotic cells vs control (T98G cells [4]; 48 h, topotecan 100 nM): significant increase
apoptotic cells detected (T98G cells [4]; 48 h treatment): ~80%
c-MYC expression [2]: downregulated
BIRC5 expression ([2]; TMZ 100 µM): downregulated
expression of the Wnt target genes ([5]; co-treatment with TMZ 100 µM): huge downregulatory effect
Axin2 expression [5, 14]: decreased
CCND1 expression [5, 14]: downregulated CCND1 expression by around half
NEDD9 expression [5, 14]: upregulated
IC50 (T98G cells [6]): 50.6 ± 1.09 µM
effect on apoptosis (U-138 MG cells [7]): anti-apoptotic effect
ability to cross the blood-brain barrier [1]: can cross the blood-brain barrier
CCND1 expression ([3]; co-treatment with TMZ 30 µM): upregulation
NEDD9 expression [3, 14]: downregulated
Papp at 4 h, 24.75 µg/mL [8]: 3.9 ± 0.2 ×10⁻⁶ cm/s
apoptosis induction [9]: activated an apoptotic process
IC50 (U-138 MG cells [10]): 45.7 ± 4.2 µM
IC50 (A-172 cells): 42.4 ± 1.25 µM
oxidative stress (superoxide) induction (T98G cells [11]): induce oxidative stress

Cn1nnc2c(C(N)=O)ncn2c1=O [TMZ, temozolomide]
Axin2 expression ([2]; TMZ 100 µM): downregulation
BIRC5 expression ([2]; TMZ 100 µM): downregulation
NEDD9 expression [5, 14]: downregulated
Axin2 expression [3, 13]: upregulated
c-MYC expression [3, 13]: upregulated
number of significantly downregulated genes vs control [12]: 46
number of significantly upregulated genes vs control [12]: 15

COc1cc(C)c(C(=O)Oc2cc(C)c(C(=O)O)c(O)c2)c(O)c1 [evernic acid]
ability to cross the blood-brain barrier [1]: can cross the blood-brain barrier
